Patent US12303509B2, “Compounds for the treatment of BRAF-associated diseases and disorders” (Pfizer Inc., priority 2020, dated 2025)
Where a name gives a salt, the structure may show the parent alone. Read-outs that look alike come from different tables or passages of the source.

Key:
P-gp (MDR1) = P-gp (MDR1) (Homo sapiens (Human), UniProt P08183); assay: MDR1 LLC-PK1 permeability assay: efflux ratio; format: in vitro ADME; settings: pig
Source text: (§1) Final organic concentration in the assay was 1%.

A375 cells = assay: Cellular phospho-ERK inhibition assay in A375 cells; format: cell-based; settings: Homo sapiens, A-375, A375 cells (head prints A357), 2 hours treatment, read-out: A357 cell IC50
In short: (§2)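 A375 (DMEM) or H1755 (RPMI) cells in 10% FBS treated 2 h at 37 °C with 9-point series, 66 pM–10 μM, 0.25% DMSO. Phospho-ERK1/2 (Thr202/Tyr204) measured by In Cell Western, normalised to GAPDH and to DMSO and 10 μM binimetinib controls; IC50 by 4-parameter fit.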

[1] = MDR1 LLC-PK1 and BCRP MDCKII permeability assay: permeability coefficient (Papp); format: in vitro ADME
Source text: as §1

[2] = biological target: full-length FLAG-tagged B-Raf(V600E) (Homo sapiens (Human), UniProt P15056, V600E); assay: BRAF V600E enzyme assay (TR-FRET competitive displacement); format: binding
In short: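 Displacement of 50 nM Tracer 1710 from 5 nM full-length N-terminally FLAG-tagged B-Raf(V600E), detected by TR-FRET with 0.5 nM Eu anti-FLAG antibody, in 25 mM HEPES pH 7.4, 10 mM MgCl2, 2% DMSO; 60 min at ~22 °C. Compounds 11-point, 3-fold from 10 μM; IC50 from 4-parameter fit at 50 POC.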

H1755 cells = assay: Cellular phospho-ERK inhibition assay in H1755 cells; format: cell-based; settings: Homo sapiens, NCI-H1755, 2 hours treatment, read-out: H1755 Cell IC50
In short: as §2

BCRP = BCRP (Homo sapiens (Human), UniProt Q9UNQ0); assay: BCRP MDCKII permeability assay: efflux ratio; format: in vitro ADME; settings: dog
[3] = averaged IC50, TR-FRET tracer displacement, 60 min

Sequence of full-length FLAG-tagged B-Raf(V600E) (P15056 whole entry V600E): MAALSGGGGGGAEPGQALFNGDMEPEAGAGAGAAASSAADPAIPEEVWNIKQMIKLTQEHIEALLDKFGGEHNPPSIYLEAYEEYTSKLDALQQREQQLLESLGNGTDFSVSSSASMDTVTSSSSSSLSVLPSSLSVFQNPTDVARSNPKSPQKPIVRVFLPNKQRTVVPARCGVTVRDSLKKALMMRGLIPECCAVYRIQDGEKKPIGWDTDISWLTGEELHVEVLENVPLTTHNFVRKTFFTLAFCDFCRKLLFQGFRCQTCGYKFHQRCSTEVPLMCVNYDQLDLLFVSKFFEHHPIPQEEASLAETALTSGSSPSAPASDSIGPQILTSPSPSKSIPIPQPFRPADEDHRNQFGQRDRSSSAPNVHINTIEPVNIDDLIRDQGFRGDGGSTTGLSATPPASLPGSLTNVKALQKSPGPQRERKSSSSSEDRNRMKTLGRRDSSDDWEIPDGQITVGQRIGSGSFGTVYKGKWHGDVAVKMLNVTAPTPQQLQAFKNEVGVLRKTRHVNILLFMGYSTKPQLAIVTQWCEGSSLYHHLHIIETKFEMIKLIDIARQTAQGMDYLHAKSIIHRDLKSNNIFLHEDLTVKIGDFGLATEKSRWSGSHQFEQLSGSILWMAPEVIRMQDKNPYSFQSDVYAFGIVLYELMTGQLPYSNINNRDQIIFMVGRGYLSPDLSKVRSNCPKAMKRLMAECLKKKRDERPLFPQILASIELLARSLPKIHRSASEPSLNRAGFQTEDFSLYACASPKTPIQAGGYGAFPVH
Sequence of BCRP (Q9UNQ0 whole entry): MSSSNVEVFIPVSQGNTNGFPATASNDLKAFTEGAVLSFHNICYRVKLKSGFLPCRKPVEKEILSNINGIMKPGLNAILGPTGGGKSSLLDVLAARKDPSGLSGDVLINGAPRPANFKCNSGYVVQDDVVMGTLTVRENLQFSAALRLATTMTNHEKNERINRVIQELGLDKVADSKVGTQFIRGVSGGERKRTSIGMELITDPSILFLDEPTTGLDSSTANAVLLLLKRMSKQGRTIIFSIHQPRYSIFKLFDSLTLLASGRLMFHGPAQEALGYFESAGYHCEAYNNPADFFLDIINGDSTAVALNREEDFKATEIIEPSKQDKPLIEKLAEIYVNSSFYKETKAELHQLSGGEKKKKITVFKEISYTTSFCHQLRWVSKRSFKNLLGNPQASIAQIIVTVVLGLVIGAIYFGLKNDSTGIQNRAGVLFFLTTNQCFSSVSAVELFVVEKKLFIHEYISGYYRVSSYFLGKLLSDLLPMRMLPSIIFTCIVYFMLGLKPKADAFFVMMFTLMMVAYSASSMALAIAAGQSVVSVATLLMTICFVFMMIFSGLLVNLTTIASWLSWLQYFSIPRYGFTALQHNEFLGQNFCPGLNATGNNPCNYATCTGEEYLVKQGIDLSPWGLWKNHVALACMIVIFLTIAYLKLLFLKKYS
Sequence of P-gp (MDR1) (P08183 whole entry, species assumed): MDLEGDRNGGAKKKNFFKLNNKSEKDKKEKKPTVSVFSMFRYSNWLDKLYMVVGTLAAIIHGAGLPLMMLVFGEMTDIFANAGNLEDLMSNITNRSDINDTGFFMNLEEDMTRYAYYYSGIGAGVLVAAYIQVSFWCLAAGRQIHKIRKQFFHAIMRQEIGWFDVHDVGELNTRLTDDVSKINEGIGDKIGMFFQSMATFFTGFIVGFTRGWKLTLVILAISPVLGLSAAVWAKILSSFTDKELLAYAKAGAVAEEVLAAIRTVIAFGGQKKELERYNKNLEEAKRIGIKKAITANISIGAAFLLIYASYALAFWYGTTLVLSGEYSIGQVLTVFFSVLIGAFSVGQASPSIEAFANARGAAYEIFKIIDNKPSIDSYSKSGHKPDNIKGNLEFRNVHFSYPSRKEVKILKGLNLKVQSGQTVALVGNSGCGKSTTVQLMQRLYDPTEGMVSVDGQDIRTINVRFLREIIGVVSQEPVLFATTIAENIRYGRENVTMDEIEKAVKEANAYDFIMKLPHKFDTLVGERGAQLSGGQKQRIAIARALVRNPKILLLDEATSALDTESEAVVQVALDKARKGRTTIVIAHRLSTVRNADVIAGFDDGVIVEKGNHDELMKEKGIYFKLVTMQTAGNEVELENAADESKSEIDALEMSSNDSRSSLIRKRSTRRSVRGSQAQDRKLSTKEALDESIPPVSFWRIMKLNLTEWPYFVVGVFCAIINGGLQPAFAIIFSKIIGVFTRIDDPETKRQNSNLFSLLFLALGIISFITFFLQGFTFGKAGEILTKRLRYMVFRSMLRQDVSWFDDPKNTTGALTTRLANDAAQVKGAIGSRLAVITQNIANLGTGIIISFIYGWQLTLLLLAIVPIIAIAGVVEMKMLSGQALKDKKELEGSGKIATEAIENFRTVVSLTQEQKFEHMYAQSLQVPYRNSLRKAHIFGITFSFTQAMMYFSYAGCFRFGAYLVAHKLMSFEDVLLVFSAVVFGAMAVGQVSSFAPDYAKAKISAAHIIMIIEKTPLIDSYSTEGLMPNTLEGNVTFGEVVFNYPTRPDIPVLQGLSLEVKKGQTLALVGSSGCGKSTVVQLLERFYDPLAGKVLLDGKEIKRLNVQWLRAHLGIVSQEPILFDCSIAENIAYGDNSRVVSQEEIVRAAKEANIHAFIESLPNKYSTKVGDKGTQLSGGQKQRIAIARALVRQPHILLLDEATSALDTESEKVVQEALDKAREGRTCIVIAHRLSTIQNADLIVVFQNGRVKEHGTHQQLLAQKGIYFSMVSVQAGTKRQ

Compound | efflux ratio at 2 h, 1 µM (P-gp (MDR1)) | IC50 (A375 cells) | Papp at 2 h, 1 µM [1] | IC50 [2] | IC50 (H1755 cells) | efflux ratio at 2 h, 1 µM (BCRP) | IC50 [2, 3]
Cn1cnc2ccc(Oc3c(F)ccc(NS(=O)(=O)N4CC5CC5C4)c3Cl)c(F)c2c1=O (stereo not drawn) [Example 65, N-(2-chloro-4-fluoro-3-((5-fluoro-3-methyl-4-oxo-3,4-dihydroquinazolin-6-yl)oxy)phenyl)-3-azabicyclo[3.1.0]hexane-3-sulfonamide] | 1.3 | 13 nM | 28 ×10⁻⁶ cm/s | 2 nM | 127 nM | 1 | 
[2H]C([2H])([2H])O[C@@H]1CCN(S(=O)(=O)Nc2ccc(F)c(Nc3ccc4ncn(C)c(=O)c4c3Cl)c2Cl)C1 [Example 53, (R)-N-(2-chloro-3-((5-chloro-3-methyl-4-oxo-3,4-dihydroquinazolin-6-yl)amino)-4-fluorophenyl)-3-(methoxy-d3)pyrrolidine-1-sulfonamide trifluoroacetate] | 2 | 6 nM | 30 ×10⁻⁶ cm/s |  | 25 nM | 1.8 | 7 nM
Cc1c(Oc2c(F)ccc(NS(=O)(=O)N3CCCC3)c2Cl)ccc2ncn(C)c(=O)c12 [Example 69, N-(2-chloro-3-((3,5-dimethyl-4-oxo-3,4-dihydroquinazolin-6-yl)oxy)-4-fluorophenyl)pyrrolidine-1-sulfonamide] | 0.8 | 22 nM | 25 ×10⁻⁶ cm/s | 7 nM | 88 nM | 0.9 | 
CO[C@@H]1CCN(S(=O)(=O)Nc2ccc(F)c(Oc3ccc4ncn(C)c(=O)c4c3C)c2Cl)C1 [Example 10, (R)-N-(2-chloro-3-((3,5-dimethyl-4-oxo-3,4-dihydroquinazolin-6-yl)oxy)-4-fluorophenyl)-3-methoxypyrrolidine-1-sulfonamide] | 1.6 | 12 nM | 27 ×10⁻⁶ cm/s |  | 84 nM | 0.7 | 8 nM
O=c1c2c(F)c(Nc3c(F)ccc(NS(=O)(=O)N4CCCC4)c3Cl)ccc2ncn1CF [Example 42, N-(2-chloro-4-fluoro-3-((5-fluoro-3-(fluoromethyl)-4-oxo-3,4-dihydroquinazolin-6-yl)amino)phenyl)pyrrolidine-1-sulfonamide trifluoroacetate] | 1.8 | 4 nM | 27 ×10⁻⁶ cm/s |  | 42 nM | 2.4 | 2 nM
COCC1CN(S(=O)(=O)Nc2ccc(F)c(Oc3ccc4ncn(C)c(=O)c4c3F)c2Cl)C1 [Example 121, N-(2-chloro-4-fluoro-3-((5-fluoro-3-methyl-4-oxo-3,4-dihydroquinazolin-6-yl)oxy)phenyl)-3-(methoxymethyl)azetidine-1-sulfonamide] | 1.9 | 7 nM | 35 ×10⁻⁶ cm/s |  | 18 nM | 6 | 9 nM
Cc1c(Nc2cc(Cl)cc(NS(=O)(=O)N3CCCC3)c2F)ccc2ncn(C)c(=O)c12 [Example 104, N-(5-chloro-3-((3,5-dimethyl-4-oxo-3,4-dihydroquinazolin-6-yl)amino)-2-fluorophenyl)pyrrolidine-1-sulfonamide] | 1.2 | 133 nM | 22 ×10⁻⁶ cm/s |  | 307 nM | 1.3 | 5 nM
Cn1cnc2ccc(Nc3c(F)ccc(NS(=O)(=O)N4CCCC4)c3Cl)c(C#N)c2c1=O [Example 50, N-(2-chloro-3-((5-cyano-3-methyl-4-oxo-3,4-dihydroquinazolin-6-yl)amino)-4-fluorophenyl)pyrrolidine-1-sulfonamide trifluoroacetate] | 5.3 | 1 nM | 26 ×10⁻⁶ cm/s |  | 20 nM | 6.3 | 2 nM
Cn1cnc2ccc(Oc3c(F)ccc(NS(=O)(=O)N4CC[C@H](F)C4)c3Cl)c(Cl)c2c1=O [Example 107, (S)-N-(2-chloro-3-((5-chloro-3-methyl-4-oxo-3,4-dihydroquinazolin-6-yl)oxy)-4-fluorophenyl)-3-fluoropyrrolidine-1-sulfonamide] | 2.7 | 8 nM | 30 ×10⁻⁶ cm/s |  | 116 nM | 1.9 | 1 nM
CCN(C)S(=O)(=O)Nc1ccc(F)c(Nc2ccc3ncn(C)c(=O)c3c2Cl)c1Cl [Example 2] | 1.2 | 15 nM | 31 ×10⁻⁶ cm/s |  | 58 nM | 1 | 36 nM
Cn1cnc2ccc(Oc3c(F)ccc(NS(=O)(=O)N4CC5CC5C4)c3Cl)c(Cl)c2c1=O (stereo not drawn) [Example 108, N-(2-chloro-3-((5-chloro-3-methyl-4-oxo-3,4-dihydroquinazolin-6-yl)oxy)-4-fluorophenyl)-3-azabicyclo[3.1.0]hexane-3-sulfonamide] | 1.2 | 14 nM | 25 ×10⁻⁶ cm/s |  | 1590 nM | 0.8 | 1 nM
Cn1cnc2ccc(Nc3c(F)ccc(NS(=O)(=O)N4CC[C@H](F)C4)c3Cl)c(Cl)c2c1=O [Example 28, (S)-N-(2-chloro-3-((5-chloro-3-methyl-4-oxo-3,4-dihydroquinazolin-6-yl)amino)-4-fluorophenyl)-3-fluoropyrrolidine-1-sulfonamide] | 2 | 7 nM | 37 ×10⁻⁶ cm/s |  | 38 nM | 1.7 | 4 nM
Cc1c(Nc2c(F)c(F)cc(NS(=O)(=O)N3CCCC3)c2Cl)ccc2ncn(C)c(=O)c12 [Example 96, N-(2-chloro-3-((3,5-dimethyl-4-oxo-3,4-dihydroquinazolin-6-yl)amino)-4,5-difluorophenyl)pyrrolidine-1-sulfonamide] | 1.2 | 40 nM | 27 ×10⁻⁶ cm/s |  | 586 nM | 1.1 | 3 nM
CCN(C)S(=O)(=O)Nc1ccc(F)c(Nc2ccc3ncn(C)c(=O)c3c2F)c1Cl [Example 4, N-(2-chloro-4-fluoro-3-((5-fluoro-3-methyl-4-oxo-3,4-dihydroquinazolin-6-yl)amino)phenyl)-(N-ethyl-N-methyl)-sulfamide] | 1.6 | 19 nM | 27 ×10⁻⁶ cm/s |  | 80 nM | 2.1 | 32 nM
CC[C@@H]1CCN(S(=O)(=O)Nc2ccc(F)c(Nc3ccc4ncn(C)c(=O)c4c3Cl)c2Cl)C1 [Example 106, (R)-N-(2-chloro-3-((5-chloro-3-methyl-4-oxo-3,4-dihydroquinazolin-6-yl)amino)-4-fluorophenyl)-3-ethylpyrrolidine-1-sulfonamide trifluoroacetate] | 1.2 | 131 nM | 22 ×10⁻⁶ cm/s |  | 430 nM | 0.8 | 12 nM
Cn1cnc2ccc(Nc3c(F)ccc(NS(=O)(=O)N4C[C@@H](F)[C@@H](F)C4)c3Cl)c(Cl)c2c1=O [Example 22, cis-N-(2-chloro-3-((5-chloro-3-methyl-4-oxo-3,4-dihydroquinazolin-6-yl)amino)-4-fluorophenyl)-3,4-difluoropyrrolidine-1-sulfonamide] | 2.7 | 15 nM | 34 ×10⁻⁶ cm/s |  | 52 nM | 5.6 | 3 nM
[2H]C([2H])([2H])O[C@@H]1CCN(S(=O)(=O)Nc2ccc(F)c(Nc3ccc4ncn(C)c(=O)c4c3C)c2Cl)C1 [Example 55, (R)-N-(2-chloro-3-((3,5-dimethyl-4-oxo-3,4-dihydroquinazolin-6-yl)amino)-4-fluorophenyl)-3-(methoxy-d3)pyrrolidine-1-sulfonamide trifluoroacetate] | 1.5 | 27 nM | 33 ×10⁻⁶ cm/s |  | 124 nM | 1 | 45 nM
Cc1c(Nc2c(F)ccc(NS(=O)(=O)N3CC(F)(F)C3)c2Cl)ccc2ncn(C)c(=O)c12 [Example 134, N-(2-chloro-3-((3,5-dimethyl-4-oxo-3,4-dihydroquinazolin-6-yl)amino)-4-fluorophenyl)-3,3-difluoroazetidine-1-sulfonamide] | 1.4 | 68 nM | 33 ×10⁻⁶ cm/s |  | 327 nM | 6.4 | 7 nM
CN(C)S(=O)(=O)Nc1ccc(F)c(Oc2ccc3ncn(C)c(=O)c3c2Cl)c1Cl [Example 110, N-(2-chloro-3-((5-chloro-3-methyl-4-oxo-3,4-dihydroquinazolin-6-yl)oxy)-4-fluorophenyl)-(N,N-dimethyl)-sulfamide] | 1.5 | 6 nM | 34 ×10⁻⁶ cm/s |  | 48 nM | 1.4 | 8 nM
